Here are results for three compounds from patent publication US20240246942A1, “KINASE INHIBITORS FOR THE TREATMENT OF NEURODEGENERATIVE DISEASES” (priority 2020, published 2024).

Holding throughout (assay): biochemical
In test [1] the target is T1, panel of 374 wild-type kinases (Homo sapiens, UniProt Q9P289).
T1 construct: purchased Reaction Biology Corporation
To be noted: read-out: % Enzyme Activity (relative to DMSO controls), MST4.

Test [2] concerns the target T2, panel of 374 wild-type kinases (Homo sapiens, UniProt O43353).
T2 construct: purchased Reaction Biology Corporation
To be noted: read-out: % Enzyme Activity (relative to DMSO controls), kinase RIPK2.

Test [3] has as its target T3, panel of 374 wild-type kinases (Homo sapiens, UniProt P07333).
T3 construct: purchased Reaction Biology Corporation
The note with it: read-out: % Enzyme Activity (relative to DMSO controls), FMS.

Test [4] has as its target T4, panel of 374 wild-type kinases (Homo sapiens, UniProt Q13237).
T4 construct: purchased Reaction Biology Corporation
T4 sequence (Q13237 1-762): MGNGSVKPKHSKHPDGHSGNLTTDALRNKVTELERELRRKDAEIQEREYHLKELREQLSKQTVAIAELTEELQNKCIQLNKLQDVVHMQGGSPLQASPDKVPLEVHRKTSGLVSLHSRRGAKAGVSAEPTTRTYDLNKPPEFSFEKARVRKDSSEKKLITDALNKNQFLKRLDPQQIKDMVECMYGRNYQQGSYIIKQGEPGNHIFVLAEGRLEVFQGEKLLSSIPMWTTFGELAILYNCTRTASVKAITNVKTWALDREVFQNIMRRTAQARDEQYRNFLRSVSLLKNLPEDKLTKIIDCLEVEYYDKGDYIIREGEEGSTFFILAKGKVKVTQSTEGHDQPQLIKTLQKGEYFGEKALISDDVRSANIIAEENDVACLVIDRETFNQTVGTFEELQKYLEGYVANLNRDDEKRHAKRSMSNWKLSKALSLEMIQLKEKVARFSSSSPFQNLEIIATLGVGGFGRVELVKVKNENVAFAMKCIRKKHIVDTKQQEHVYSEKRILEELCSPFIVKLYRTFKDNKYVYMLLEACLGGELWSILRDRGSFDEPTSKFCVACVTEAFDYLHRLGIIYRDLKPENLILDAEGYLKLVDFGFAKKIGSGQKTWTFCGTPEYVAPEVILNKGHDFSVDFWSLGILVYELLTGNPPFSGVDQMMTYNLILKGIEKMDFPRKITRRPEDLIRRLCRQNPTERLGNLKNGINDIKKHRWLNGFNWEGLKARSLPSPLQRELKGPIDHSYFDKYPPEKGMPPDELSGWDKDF
The note with it: read-out: % Enzyme Activity (relative to DMSO controls), kinase PKG2/PRKG2.

The target of test [5] is T5, panel of 374 wild-type kinases (Homo sapiens, UniProt P25098).
T5 construct: purchased Reaction Biology Corporation
T5 sequence (P25098 1-689): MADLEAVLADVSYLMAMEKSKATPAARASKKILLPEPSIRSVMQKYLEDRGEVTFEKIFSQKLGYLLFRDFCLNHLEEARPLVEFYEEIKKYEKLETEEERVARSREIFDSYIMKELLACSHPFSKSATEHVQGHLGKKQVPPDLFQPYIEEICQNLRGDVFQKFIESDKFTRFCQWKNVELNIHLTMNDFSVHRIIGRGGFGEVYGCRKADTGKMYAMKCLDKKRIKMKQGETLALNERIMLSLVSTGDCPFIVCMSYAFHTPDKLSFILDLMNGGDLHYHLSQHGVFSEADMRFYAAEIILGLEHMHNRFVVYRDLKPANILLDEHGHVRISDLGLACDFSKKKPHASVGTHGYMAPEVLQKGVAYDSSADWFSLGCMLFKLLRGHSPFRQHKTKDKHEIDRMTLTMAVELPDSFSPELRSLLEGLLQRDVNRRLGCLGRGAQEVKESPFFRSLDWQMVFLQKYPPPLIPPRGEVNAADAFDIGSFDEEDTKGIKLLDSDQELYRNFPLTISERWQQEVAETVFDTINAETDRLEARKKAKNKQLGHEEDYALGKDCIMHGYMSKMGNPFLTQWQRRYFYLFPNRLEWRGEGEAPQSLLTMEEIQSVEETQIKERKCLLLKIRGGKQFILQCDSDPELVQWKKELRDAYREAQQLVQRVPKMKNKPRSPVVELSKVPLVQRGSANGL
The note with it: read-out: % Enzyme Activity (relative to DMSO controls), GRK2.

Test [6] concerns the target T6, panel of 374 wild-type kinases (Homo sapiens, UniProt Q6P5Z2).
T6 construct: purchased Reaction Biology Corporation
The note with it: read-out: % Enzyme Activity (relative to DMSO controls), kinase PKN3/PRK3.

The target in test [7] is T7, panel of 374 wild-type kinases (Homo sapiens, UniProt O00444).
T7 construct: purchased Reaction Biology Corporation
T7 sequence (O00444 1-970): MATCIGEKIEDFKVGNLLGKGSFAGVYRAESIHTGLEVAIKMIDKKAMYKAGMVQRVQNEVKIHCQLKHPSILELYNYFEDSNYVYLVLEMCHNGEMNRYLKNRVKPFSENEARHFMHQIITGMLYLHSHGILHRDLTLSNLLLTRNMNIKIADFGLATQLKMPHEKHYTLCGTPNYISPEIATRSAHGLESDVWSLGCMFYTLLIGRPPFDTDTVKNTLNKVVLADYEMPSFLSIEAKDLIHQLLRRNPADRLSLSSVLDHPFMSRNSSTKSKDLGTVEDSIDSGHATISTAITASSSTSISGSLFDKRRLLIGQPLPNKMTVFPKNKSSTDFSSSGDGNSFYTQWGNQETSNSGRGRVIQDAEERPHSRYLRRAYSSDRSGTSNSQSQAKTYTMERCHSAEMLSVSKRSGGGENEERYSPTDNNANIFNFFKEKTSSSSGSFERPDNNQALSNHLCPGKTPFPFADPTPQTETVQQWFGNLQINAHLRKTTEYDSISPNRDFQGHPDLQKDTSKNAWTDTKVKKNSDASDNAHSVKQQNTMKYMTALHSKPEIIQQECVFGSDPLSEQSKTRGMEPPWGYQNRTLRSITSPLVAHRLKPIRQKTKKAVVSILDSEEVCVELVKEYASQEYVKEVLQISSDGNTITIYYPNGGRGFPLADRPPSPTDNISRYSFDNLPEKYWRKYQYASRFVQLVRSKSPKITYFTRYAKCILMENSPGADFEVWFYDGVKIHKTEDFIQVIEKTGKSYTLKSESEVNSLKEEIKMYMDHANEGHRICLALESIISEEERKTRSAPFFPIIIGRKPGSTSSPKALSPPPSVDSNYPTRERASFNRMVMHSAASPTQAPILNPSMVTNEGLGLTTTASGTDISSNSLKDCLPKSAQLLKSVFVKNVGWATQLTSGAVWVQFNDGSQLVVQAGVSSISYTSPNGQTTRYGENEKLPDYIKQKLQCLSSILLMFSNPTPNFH
The note with it: read-out: % Enzyme Activity (relative to DMSO controls), kinase PLK4/SAK.

T1 sequence (Q9P289 whole entry): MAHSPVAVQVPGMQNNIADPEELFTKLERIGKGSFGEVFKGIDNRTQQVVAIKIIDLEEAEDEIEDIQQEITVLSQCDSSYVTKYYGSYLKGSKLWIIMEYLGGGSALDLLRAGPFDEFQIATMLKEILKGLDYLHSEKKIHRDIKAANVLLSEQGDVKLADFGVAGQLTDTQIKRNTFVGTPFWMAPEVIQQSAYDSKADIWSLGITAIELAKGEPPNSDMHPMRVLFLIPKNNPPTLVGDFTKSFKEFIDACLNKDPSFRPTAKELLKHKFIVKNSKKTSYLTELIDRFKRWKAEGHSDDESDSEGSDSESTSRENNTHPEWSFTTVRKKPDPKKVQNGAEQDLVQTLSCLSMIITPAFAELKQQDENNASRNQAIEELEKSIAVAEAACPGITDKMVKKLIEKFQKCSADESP
T3 sequence (P07333 20-972): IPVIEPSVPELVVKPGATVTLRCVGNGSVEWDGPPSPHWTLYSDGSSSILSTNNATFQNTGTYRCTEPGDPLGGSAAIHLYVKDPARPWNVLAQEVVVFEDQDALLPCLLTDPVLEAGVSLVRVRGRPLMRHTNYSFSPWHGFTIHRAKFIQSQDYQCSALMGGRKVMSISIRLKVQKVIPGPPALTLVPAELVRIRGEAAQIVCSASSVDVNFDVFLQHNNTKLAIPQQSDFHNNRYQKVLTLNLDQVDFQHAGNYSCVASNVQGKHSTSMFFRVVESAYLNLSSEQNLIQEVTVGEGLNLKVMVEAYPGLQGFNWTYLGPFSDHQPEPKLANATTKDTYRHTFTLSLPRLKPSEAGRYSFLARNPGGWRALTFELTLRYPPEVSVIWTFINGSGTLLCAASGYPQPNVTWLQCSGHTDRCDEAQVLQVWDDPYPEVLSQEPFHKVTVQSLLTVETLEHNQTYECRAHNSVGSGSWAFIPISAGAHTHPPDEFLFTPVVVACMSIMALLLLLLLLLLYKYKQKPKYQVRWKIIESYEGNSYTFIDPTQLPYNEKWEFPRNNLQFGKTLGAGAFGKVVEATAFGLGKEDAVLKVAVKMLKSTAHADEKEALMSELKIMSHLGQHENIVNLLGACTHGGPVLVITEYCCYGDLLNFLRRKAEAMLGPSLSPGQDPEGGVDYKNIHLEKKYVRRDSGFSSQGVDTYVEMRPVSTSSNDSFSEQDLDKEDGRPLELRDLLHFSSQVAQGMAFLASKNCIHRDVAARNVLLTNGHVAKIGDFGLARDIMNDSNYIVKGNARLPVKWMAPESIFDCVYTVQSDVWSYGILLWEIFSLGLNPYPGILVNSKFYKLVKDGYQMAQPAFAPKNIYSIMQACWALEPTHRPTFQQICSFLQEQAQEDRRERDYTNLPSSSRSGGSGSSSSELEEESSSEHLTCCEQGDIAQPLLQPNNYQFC
T6 sequence (Q6P5Z2 whole entry): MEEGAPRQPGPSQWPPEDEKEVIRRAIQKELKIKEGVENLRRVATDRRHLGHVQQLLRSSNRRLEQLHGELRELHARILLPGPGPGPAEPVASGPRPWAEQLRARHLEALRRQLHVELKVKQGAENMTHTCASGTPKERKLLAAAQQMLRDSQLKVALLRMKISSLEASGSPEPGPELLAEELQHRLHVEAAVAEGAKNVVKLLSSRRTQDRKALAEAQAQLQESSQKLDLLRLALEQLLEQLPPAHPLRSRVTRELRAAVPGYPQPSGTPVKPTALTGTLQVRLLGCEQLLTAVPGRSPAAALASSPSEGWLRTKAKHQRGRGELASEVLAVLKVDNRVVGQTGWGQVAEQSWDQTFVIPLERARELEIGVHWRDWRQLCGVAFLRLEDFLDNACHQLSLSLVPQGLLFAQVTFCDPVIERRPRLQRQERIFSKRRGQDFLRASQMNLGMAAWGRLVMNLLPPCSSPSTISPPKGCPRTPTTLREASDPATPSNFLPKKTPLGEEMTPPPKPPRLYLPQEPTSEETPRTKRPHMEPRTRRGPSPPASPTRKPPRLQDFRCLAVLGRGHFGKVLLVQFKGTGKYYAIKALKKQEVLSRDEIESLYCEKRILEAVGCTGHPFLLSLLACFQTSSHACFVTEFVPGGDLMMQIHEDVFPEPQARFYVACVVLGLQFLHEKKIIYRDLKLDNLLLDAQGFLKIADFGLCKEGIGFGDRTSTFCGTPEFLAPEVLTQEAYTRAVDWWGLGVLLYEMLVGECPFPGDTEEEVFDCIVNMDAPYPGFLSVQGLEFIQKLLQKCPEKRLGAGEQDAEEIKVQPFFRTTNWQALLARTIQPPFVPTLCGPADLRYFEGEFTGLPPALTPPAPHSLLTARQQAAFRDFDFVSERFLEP
T2 sequence (O43353 whole entry): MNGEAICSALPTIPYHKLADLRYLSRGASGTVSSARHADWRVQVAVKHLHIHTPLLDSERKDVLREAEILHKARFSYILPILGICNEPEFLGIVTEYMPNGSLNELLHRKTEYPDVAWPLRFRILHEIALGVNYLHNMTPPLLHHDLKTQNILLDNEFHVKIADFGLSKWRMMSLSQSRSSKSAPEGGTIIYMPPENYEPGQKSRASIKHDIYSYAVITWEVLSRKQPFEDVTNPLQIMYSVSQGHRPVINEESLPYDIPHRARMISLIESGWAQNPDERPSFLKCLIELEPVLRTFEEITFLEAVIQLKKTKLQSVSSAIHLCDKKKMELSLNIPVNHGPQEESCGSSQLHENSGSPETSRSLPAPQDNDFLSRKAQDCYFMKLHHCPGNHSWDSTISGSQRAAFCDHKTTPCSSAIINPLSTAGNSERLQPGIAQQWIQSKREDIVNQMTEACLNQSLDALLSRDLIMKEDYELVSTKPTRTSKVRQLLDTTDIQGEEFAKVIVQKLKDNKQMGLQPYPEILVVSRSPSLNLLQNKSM

Take `Cc1sc(C(=O)NC2COC2)cc1-n1cc(NC(=O)Nc2c(F)cccc2Cl)cn1` [Compound 27, 4-(4-(3-(2-chloro-6-fluorophenyl)ureido)-1H-pyrazol-1-yl)-5-methyl-N-(oxetan-3-yl)thiophene-2-carboxamide]: the remaining activity at 10 µM in test [1] (10 uM) turned out to be 72.4%; in test [2] (10 uM) it was 89.3%; in test [3] (10 uM), 103%; in test [4] (10 uM) it was 100%; in test [5] (10 uM) it was 106%; in test [6] (10 uM), 98.6%. In addition, the remaining activity at 10 µM in test [7] (10 uM) worked out at 100%.
As to `O=C(Nc1cnn(-c2csc(C(=O)NC3COC3)c2)c1)Nc1c(F)cccc1Cl` [Compound 25, 4-(4-(3-(2-chloro-6-fluorophenyl)ureido)-1H-pyrazol-1-yl)-N-(oxetan-3-yl)thiophene-2-carboxamide], the remaining activity at 5 µM in test [1] amounted to 71.4%; in test [2], 80.2%; in test [3] it was 98.9%; in test [4], 101%; in test [5], 106%; in test [6] it was 76.2%. Moreover, the remaining activity at 5 µM in test [7] came to 84.3%.
For `O=C(Nc1cnn(-c2csc(C(=O)NC3COC3)c2)c1)Nc1ccccc1Cl` [Compound 17, 4-(4-(3-(2-chlorophenyl)ureido)-1H-pyrazol-1-yl)-N-(oxetan-3-yl)thiophene-2-carboxamide], the remaining activity at 5 µM turned out to be 98.3% in test [1]; 120% in test [2]; 105% in test [3]; 101% in test [4]; 96.1% in test [5]; 92.5% in test [6]. Moreover, the remaining activity at 5 µM in test [7] amounted to 88.2%.
